± gives the expanded uncertainty stated by the source.
Assay: xn = mol fraction of the nth substance listed
Conditions: 100 kPa, Liquid; for viscosity: Concentric cylinders viscometry; for mass density: Vibrating tube method

CCCCCCn1cc[n+](C)c1.O=[N+]([O-])[O-] [1-hexyl-3-methylimidazolium nitrate] + CCCCCCCO
Conditions	mass density [kg/m3]	viscosity [mPa·s]
293.15 K, x1 = 0.0812	857.5 ± 1.3	12.74 ± 1.1
293.15 K, x1 = 0.1608	889.6 ± 1.3	22.91 ± 1.9
293.15 K, x1 = 0.2395	919 ± 1.2	36.98 ± 3
293.15 K, x1 = 0.3493	956.7 ± 1.2	67.76 ± 5.5
293.15 K, x1 = 0.4392	985 ± 1.2	100.46 ± 8.2
293.15 K, x1 = 0.5749	1023.9 ± 1.2	177.42 ± 15
293.15 K, x1 = 0.6491	1043.4 ± 1.2	234.42 ± 19
293.15 K, x1 = 0.7398	1065.6 ± 1.3	338.84 ± 29
293.15 K, x1 = 0.8496	1090.2 ± 1.3	508.16 ± 44
293.15 K, x1 = 0.9381	1108.4 ± 1.4	677.64 ± 59
293.15 K, x1 = 1	1120.3 ± 1.4	804.17 ± 70
298.15 K, x1 = 0.0812	853.9 ± 1.3	10.09 ± 0.82
298.15 K, x1 = 0.1608	885.9 ± 1.3	16.67 ± 1.4
298.15 K, x1 = 0.2395	915.3 ± 1.2	25.12 ± 2
298.15 K, x1 = 0.3493	953.1 ± 1.2	41.88 ± 3.4
298.15 K, x1 = 0.4392	981.5 ± 1.2	61.38 ± 5
298.15 K, x1 = 0.5749	1020.5 ± 1.2	109.9 ± 8.9
298.15 K, x1 = 0.6491	1040 ± 1.2	150.66 ± 12
298.15 K, x1 = 0.7398	1062.2 ± 1.3	219.28 ± 18
298.15 K, x1 = 0.8496	1087.1 ± 1.3	334.2 ± 28
298.15 K, x1 = 0.9381	1105.4 ± 1.4	460.97 ± 39
298.15 K, x1 = 1	1117.5 ± 1.4	545.25 ± 47
303.15 K, x1 = 0.0812	850.3 ± 1.3	7.94 ± 0.64
303.15 K, x1 = 0.1608	882.2 ± 1.3	12.19 ± 0.99
303.15 K, x1 = 0.2395	911.5 ± 1.2	17.82 ± 1.4
303.15 K, x1 = 0.3493	949.3 ± 1.2	28.31 ± 2.3
303.15 K, x1 = 0.4392	977.7 ± 1.2	40.09 ± 3.2
303.15 K, x1 = 0.5749	1016.8 ± 1.2	69.18 ± 5.6
303.15 K, x1 = 0.6491	1036.3 ± 1.2	94.19 ± 7.6
303.15 K, x1 = 0.7398	1058.6 ± 1.2	136.14 ± 11
303.15 K, x1 = 0.8496	1083.5 ± 1.3	213.3 ± 18
303.15 K, x1 = 0.9381	1102.1 ± 1.4	303.7 ± 25
303.15 K, x1 = 1	1114.3 ± 1.4	369.14 ± 31
308.15 K, x1 = 0.0812	846.5 ± 1.3	6.64 ± 0.54
308.15 K, x1 = 0.1608	878.3 ± 1.3	9.57 ± 0.77
308.15 K, x1 = 0.2395	907.7 ± 1.2	13.27 ± 1.1
308.15 K, x1 = 0.3493	945.5 ± 1.2	19.95 ± 1.6
308.15 K, x1 = 0.4392	973.9 ± 1.2	27.99 ± 2.3
308.15 K, x1 = 0.5749	1013 ± 1.2	46.34 ± 3.7
308.15 K, x1 = 0.6491	1032.6 ± 1.2	61.8 ± 5
308.15 K, x1 = 0.7398	1054.9 ± 1.2	91.83 ± 7.5
308.15 K, x1 = 0.8496	1080 ± 1.3	147.57 ± 12
308.15 K, x1 = 0.9381	1098.7 ± 1.4	206.54 ± 17
308.15 K, x1 = 1	1111.1 ± 1.4	257.59 ± 21
313.15 K, x1 = 0.0812	842.8 ± 1.3	5.43 ± 0.44
313.15 K, x1 = 0.1608	874.6 ± 1.3	7.36 ± 0.59
313.15 K, x1 = 0.2395	903.9 ± 1.2	9.99 ± 0.8
313.15 K, x1 = 0.3493	941.7 ± 1.2	14.27 ± 1.1
313.15 K, x1 = 0.4392	970.1 ± 1.2	19.02 ± 1.5
313.15 K, x1 = 0.5749	1009.3 ± 1.2	31.62 ± 2.6
313.15 K, x1 = 0.6491	1028.9 ± 1.2	42.17 ± 3.4
313.15 K, x1 = 0.7398	1051.3 ± 1.2	62.32 ± 5
313.15 K, x1 = 0.8496	1076.5 ± 1.3	101.4 ± 8.3
313.15 K, x1 = 0.9381	1095.3 ± 1.4	142.89 ± 12
313.15 K, x1 = 1	1107.8 ± 1.4	185.67 ± 15
318.15 K, x1 = 0.0812	839.1 ± 1.3	4.59 ± 0.37
318.15 K, x1 = 0.1608	870.8 ± 1.3	6.17 ± 0.5
318.15 K, x1 = 0.2395	900.2 ± 1.2	7.85 ± 0.63
318.15 K, x1 = 0.3493	937.9 ± 1.2	10.99 ± 0.88
318.15 K, x1 = 0.4392	966.4 ± 1.2	14.45 ± 1.2
318.15 K, x1 = 0.5749	1005.6 ± 1.2	22.7 ± 1.8
318.15 K, x1 = 0.6491	1025.4 ± 1.2	30.06 ± 2.4
318.15 K, x1 = 0.7398	1047.9 ± 1.2	43.55 ± 3.5
318.15 K, x1 = 0.8496	1073.1 ± 1.3	71.58 ± 5.8
318.15 K, x1 = 0.9381	1092.1 ± 1.4	106.41 ± 8.7
318.15 K, x1 = 1	1104.7 ± 1.4	140.18 ± 11
323.15 K, x1 = 0.0812	835.3 ± 1.3	3.84 ± 0.31
323.15 K, x1 = 0.1608	867 ± 1.3	5.01 ± 0.4
323.15 K, x1 = 0.2395	896.4 ± 1.2	6.43 ± 0.52
323.15 K, x1 = 0.3493	934.2 ± 1.2	8.89 ± 0.72
323.15 K, x1 = 0.4392	962.6 ± 1.2	11.59 ± 0.93
323.15 K, x1 = 0.5749	1001.9 ± 1.2	17.99 ± 1.4
323.15 K, x1 = 0.6491	1021.8 ± 1.2	23.44 ± 1.9
323.15 K, x1 = 0.7398	1044.4 ± 1.2	34.2 ± 2.8
323.15 K, x1 = 0.8496	1069.8 ± 1.3	54.87 ± 4.4
323.15 K, x1 = 0.9381	1088.9 ± 1.4	82.79 ± 6.7
323.15 K, x1 = 1	1101.6 ± 1.4	110.94 ± 9

— the NIST ThermoML archive (doi:10.1021/acs.jced.9b00507)
